This note sets out measurements from ChEMBL document CHEMBL4665754, “Discovery of a coumarin derivative as Nrf2 activator mitigating oxidative stress and fibrosis in mesangial cells under high glucose” (Bioorg Med Chem Lett, 2020).

Active and inactive are the calls of the source. The rule behind the calls is not given here.

The nature of data set [1]: Cytotoxicity against Mesangial cell (unknown origin) at 0.01 to 100 uM by CCK8 assay. The data set is classed as tissue-based. The settings on record: dose 0.01-100 µM.
For data set [2], the system named is Mesangial cell. Put plainly: Inhibition of glucose-induced cell proliferation in Mesangial cell (unknown origin) at 10 uM by CCK8 assay. The data set is classed as functional, tissue-based.
In data set [3] the target is T1, Keap1/Nrf2 (Homo sapiens) (UniProt Q16236+Q14145). Kind of data set: Disruption of interaction between Nrf2/Keap1 (unknown origin) in mesangial cells assessed as reduction in high glucose-induced intracellular MDA level at 10 uM. The data set is classed as cell-based. The conditions noted are these: Mesangial cell.
T1 sequence (Q14145 whole entry, looked up, one chain of several): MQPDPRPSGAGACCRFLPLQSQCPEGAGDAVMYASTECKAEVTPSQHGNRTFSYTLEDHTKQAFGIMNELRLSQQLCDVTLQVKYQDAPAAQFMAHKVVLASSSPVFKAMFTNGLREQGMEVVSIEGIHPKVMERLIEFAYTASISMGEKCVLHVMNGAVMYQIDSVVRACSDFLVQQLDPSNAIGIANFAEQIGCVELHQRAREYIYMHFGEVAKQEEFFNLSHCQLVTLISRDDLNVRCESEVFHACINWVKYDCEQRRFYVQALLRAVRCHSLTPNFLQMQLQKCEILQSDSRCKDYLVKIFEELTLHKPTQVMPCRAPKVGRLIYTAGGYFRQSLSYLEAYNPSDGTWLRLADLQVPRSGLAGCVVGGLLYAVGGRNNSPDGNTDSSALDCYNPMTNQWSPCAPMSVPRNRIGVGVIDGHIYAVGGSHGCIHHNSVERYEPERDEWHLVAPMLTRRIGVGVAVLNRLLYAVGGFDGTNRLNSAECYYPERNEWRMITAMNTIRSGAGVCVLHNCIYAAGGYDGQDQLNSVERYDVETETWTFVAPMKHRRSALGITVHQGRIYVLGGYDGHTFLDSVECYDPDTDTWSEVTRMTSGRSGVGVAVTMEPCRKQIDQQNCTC
Data set [4] has as its target T1, Keap1/Nrf2 (Homo sapiens). Put plainly: Disruption of interaction between Nrf2/Keap1 (unknown origin) in mesangial cells assessed as reduction in high glucose-induced collagen IV secretion at 10 uM by ELISA. The data set is classed as cell-based. The settings on record: Mesangial cell.
The target in data set [5] is T1, Keap1/Nrf2 (Homo sapiens). Kind of data set: Disruption of interaction between Nrf2/Keap1 (unknown origin) in mesangial cell assessed as decrease in Keap1 immunoprecipitate at 10 uM in presence of high glucose by Co-immunoprecipitation assay. The data set is classed as tissue-based.
For data set [6], the target named is T2, Nuclear factor erythroid 2-related factor 2 (Homo sapiens) (UniProt Q16236).
T2 sequence (whole entry): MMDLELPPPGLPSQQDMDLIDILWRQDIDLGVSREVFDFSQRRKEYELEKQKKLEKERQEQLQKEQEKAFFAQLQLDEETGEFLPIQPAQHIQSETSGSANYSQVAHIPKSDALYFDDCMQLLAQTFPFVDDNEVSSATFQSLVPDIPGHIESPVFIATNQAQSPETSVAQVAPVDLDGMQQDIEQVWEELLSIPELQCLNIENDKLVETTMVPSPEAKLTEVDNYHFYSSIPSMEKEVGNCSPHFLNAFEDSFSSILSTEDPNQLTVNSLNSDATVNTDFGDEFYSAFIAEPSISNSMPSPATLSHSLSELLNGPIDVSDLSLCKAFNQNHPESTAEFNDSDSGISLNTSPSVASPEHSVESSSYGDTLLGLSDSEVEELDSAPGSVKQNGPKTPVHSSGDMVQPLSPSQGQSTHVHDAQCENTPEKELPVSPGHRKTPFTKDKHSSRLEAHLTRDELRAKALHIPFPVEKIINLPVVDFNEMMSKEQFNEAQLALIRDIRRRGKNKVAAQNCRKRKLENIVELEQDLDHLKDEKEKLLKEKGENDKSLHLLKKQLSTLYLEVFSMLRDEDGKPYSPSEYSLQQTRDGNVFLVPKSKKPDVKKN
Kind of data set: Activation of Nrf2 (unknown origin) in mesangial cell at 5 and 10 uM in presence of high glucose by Western blot based densitometric assay. The settings on record: dose microM 5-10. Type of data set: tissue-based.

Data set [7] deals with T1, Keap1/Nrf2 (Homo sapiens). Kind of data set: Disruption of interaction between Nrf2/Keap1 (unknown origin) in mesangial cells assessed as reduction in high glucose-induced intracellular ROS production at 10 uM in presence of 10 uM ML385 by DCFH-DA assay. Type of data set: cell-based. The conditions noted are these: Mesangial cell.
Data set [8] has as its target T2, Nuclear factor erythroid 2-related factor 2 (Homo sapiens). Put plainly: Activation of Nrf2 (unknown origin) in mesangial cell assessed as increase in transcription ability of Nrf2 binding to ARE by measuring increase luciferase activity at 5 to 10 uM in presence of high glucose by luciferase reporter gene assay. The data set is classed as tissue-based. The settings on record: dose microM 5-10.

Data set [9] concerns Mesangial cell. Kind of data set: Inhibition of glucose-induced cell proliferation in Mesangial cell (unknown origin) at 5 and 10 uM by CCK8 assay. Type of data set: functional, tissue-based. The settings on record: dose microM 5-10.
Data set [10] concerns the target T1, Keap1/Nrf2 (Homo sapiens). Kind of data set: Disruption of interaction between Nrf2/Keap1 (unknown origin) in mesangial cells assessed as reduction in high glucose-induced fibronectin secretion at 10 uM in presence of 10 uM ML385 by ELISA. The data set is classed as cell-based. The conditions noted are these: Mesangial cell.
Data set [11] has as its target T2, Nuclear factor erythroid 2-related factor 2 (Homo sapiens). Kind of data set: Activation of Nrf2 (unknown origin) in mesangial cell assessed as strong red fluorescence at 5 and 10 uM in presence of high glucose by immunofluorescence staining based assay. Type of data set: tissue-based. The settings on record: dose microM 5-10.
For data set [12], the target named is T1, Keap1/Nrf2 (Homo sapiens). Put plainly: Disruption of interaction between Nrf2/Keap1 (unknown origin) in mesangial cells assessed as reduction in high glucose-induced collagen IV secretion at 10 uM in presence of 10 uM ML385 by ELISA. The settings on record: Mesangial cell. The data set is classed as cell-based.
Data set [13] has as its target T1, Keap1/Nrf2 (Homo sapiens). Put plainly: Disruption of interaction between Nrf2/Keap1 (unknown origin) in mesangial cells assessed as reduction in high glucose-induced fibronectin secretion at 5 to 10 uM by ELISA. Type of data set: cell-based. The conditions noted are these: Mesangial cell, dose microM 5-10.
Data set [14] deals with T1, Keap1/Nrf2 (Homo sapiens). Kind of data set: Disruption of interaction between Nrf2/Keap1 (unknown origin) in mesangial cells assessed as reduction in high glucose-induced intracellular MDA level at 10 uM in presence of 10 uM ML385. The settings on record: Mesangial cell. Type of data set: cell-based.
Data set [15] addresses T2, Nuclear factor erythroid 2-related factor 2 (Homo sapiens). Kind of data set: Activation of Nrf2 (unknown origin) in mesangial cell assessed as increase in translocation of Nrf2 into nuclei from cytosol at 5 to 10 uM in presence of high glucose by Western blot based densitometric assay. Type of data set: tissue-based. The settings on record: dose microM 5-10.
The target of data set [16] is T1, Keap1/Nrf2 (Homo sapiens). Kind of data set: Disruption of interaction between Nrf2/Keap1 (unknown origin) in mesangial cells assessed as reduction in high glucose-induced intracellular MDA level at 5 to 10 uM. The conditions noted are these: Mesangial cell, dose microM 5-10. The data set is classed as cell-based.
In data set [17] the target is T1, Keap1/Nrf2 (Homo sapiens). Put plainly: Disruption of interaction between Nrf2/Keap1 (unknown origin) in mesangial cells assessed as reduction in high glucose-induced intracellular ROS production at 5 to 10 uM by DCFH-DA assay. The data set is classed as cell-based. The settings on record: Mesangial cell, dose microM 5-10.
In data set [18] the target is T1, Keap1/Nrf2 (Homo sapiens). Put plainly: Disruption of interaction between Nrf2/Keap1 (unknown origin) in mesangial cells assessed as reduction in high glucose-induced collagen IV secretion at 5 to 10 uM by ELISA. The data set is classed as cell-based. The settings on record: Mesangial cell, dose microM 5-10.
The target in data set [19] is T1, Keap1/Nrf2 (Homo sapiens). Put plainly: Disruption of interaction between Nrf2/Keap1 (unknown origin) in mesangial cell assessed as increase of Nrf2 immunoprecipitate at 10 uM in presence of high glucose by Co-immunoprecipitation assay. The data set is classed as tissue-based.

Regarding `COc1cc2cc(Oc3ccc4ccc(=O)oc4c3)c(=O)oc2cc1O` [DAPHNORETIN], the Activity entry in data set [1] is given as “Non-Toxic”. Moreover, the inhibition entry in [2], in data set [3] and in [4] was “Active” each time.
Turning to `O=c1ccc2ccc(Oc3cc4ccc(=O)oc4cc3O)cc2o1`, the Activity result in data set [1] is “Non-Toxic”. The inhibition result in [2], in data set [3] and in data set [4] was “Active” each time.
As to `COc1cc2cc(Oc3ccc4ccc(=O)oc4c3)c(=O)oc2cc1O[C@@H]1O[C@H](CO)[C@@H](O)[C@H](O)[C@H]1O` [DAPHNORIN], the outcome in data set [5], in data set [6], in data set [8], in data set [11], in data set [15] and in [19] was Active. For the same compound, the inhibition result in data set [7], in data set [10], in [12] and in [14] was “inactive” in each case. Further, the Activity result in data set [1] was “Non-Toxic”. For the same compound, the inhibition entry in data set [9], in data set [13], in data set [16], in [17] and in data set [18] was “Active” each time.
For the compound `O=c1ccc2ccc(Oc3cc4ccc(O)cc4oc3=O)cc2o1` [EDGEWORIN], the Activity entry in [1] is recorded as “Non-Toxic”. Moreover, the inhibition entry in data set [2], in [3] and in data set [4] was “Active” in each case.
